Laboratory results taken from PubChem BioAssay AID2060895 (Molecular Pharmacology Branch, DTP, NCI, 2025).

System: PDC 899932-113-R3-J6 complex spheroid viability
Assay: Anticancer human tumor 899932-113-R3-J6-PDC patient-derived melanoma cell line growth inhibition [RAS]
Conditions: for viability, T/C: stronger effect = lower value
From the text: RAS pathway inhibitors in Combinations in Complex Spheroids
A high-throughput screen of multi-cell type tumor spheroids was designed to identify active combinations of RAS pathway inhibitors and targeted small molecules. Complex spheroids include a stromal component modeled by human endothelial cells (HUVEC) and fibroblasts modeled by human mesenchymal stem cells (MSCs). The concentration ranges selected for each drug and investigational agent were based upon clinically achievable concentrations if the clinical Cmax of the agent was known.
Compounds. The drugs and investigational agents: abemaciclib (NSC768073), cobimetinib (NSC768068), divarasib (GDC6063, NSC841802), docetaxel (NSC628503), GDC-1971 (RLY-1971, NSC841576), gemcitabine (NSC613327), inavolisib (NSC800729), ipatasertib (NSC767898), KB-0742 (NSC834161), MRTX-1133 (NSC836407), osimertinib (NSC779217), RMC-4630 (NSC839698), RMC-6236 (NSC851965), RMC-6291 (NSC852671), Ro-3306 (NSC812927), sapanisertib (NSC764658), SN-38 (NSC673596), staurosporine (NSC755774), SY5609 (NSC837396), and tovorafenib (DAY101, NSC766906), were obtained from the National Cancer Institute (NCI) Developmental Therapeutics Program Chemical Repository. The FDA-approved anticancer drug set is available from the NCI Developmental Therapeutics Program. […] The stock solutions were prepared in dimethyl sulfoxide (DMSO, Sigma-Aldrich, St. Louis, MO, cat. D2650) at 800-fold the tested concentration and stored at -70 degrees C prior to their use. All drugs and investigational agents were tested over a range starting from a high concentration at or near the clinical Cmax and decreasing in half-log increments. If the clinical Cmax for an agent had not been determined, the highest concentration tested was 10 microM.
Cell Culture. All cells were maintained in an incubator at 37 degrees C and 5% CO2 with 95% humidity. The PDC lines were cultured according to standard operating procedures established by the NCI PDMR. All PDCs were thawed and cultured in Matrigel-coated flasks prepared with a working solution of 1X Ham's F-12 nutrient mix, without supplementation (Invitrogen, Waltham, MA, cat. 11765054), 100 U/mL penicillin-streptomycin (Invitrogen, cat. 15140122), and 2.5% Matrigel (Corning Inc., Corning, NY, cat. 354248) for the first three passages. The 362531-283-R-J2-PDC and 782815-120-R-J1-PDC lines were cultured in 6C/Colon 1B media, which includes advanced DMEM/F-12 (Thermo Fisher Scientific, cat. 12634028), 10 mM HEPES (Thermo Fisher Scientific, cat. 15630080), 1X GlutaMAX supplement (Thermo Fisher Scientific, cat. 35050061), 0.1 mg/mL primocin (InvivoGen, San Diego, CA, cat. ant-pm-2), 10% defined fetal bovine serum, heat inactivated (HyClone Laboratories Inc., Logan, UT, cat. SH30070.03HI), 50% L-WRN conditioned media (ATCC, cat. CRL-3276), 1.25 mM N-Acetyl-L-cysteine (Sigma-Aldrich, cat. A9165), 10 mM nicotinamide (Sigma-Aldrich, cat. N0636), 1X B-27 supplement (Thermo Fisher Scientific, cat. 17504044), 1X N-2 supplement (Thermo Fisher Scientific, cat. 17502048), 50 ng/mL human EGF (Thermo Fisher Scientific, cat. PHG0311), and 10 microM Y-27632 dihydrochloride (Tocris Bioscience, cat. 1254). The K12877-001-R-J1-PDC line was cultured in 6I media, which includes all 6C/Colon 1B media plus 10 ng/mL human FGF-10 (PeproTech, cat. 100-26), 1 ng/mL human FGF-2 (PeproTech, cat. 100-18B), 1 µM prostaglandin E2 (Tocris Bioscience, cat. 2296), […] hydrocortisone (Sigma-Aldrich, cat. H4001), and […] bovine insulin (Sigma-Aldrich, cat. I6634). The K86415-001-R-J1-PDC line was cultured in 6D media, which includes all 6C/Colon 1B media components minus the L-WRN conditioned media. The 485176-168-R4-J1-PDC was cultured in PANC media, which includes all 6C/Colon 1B media plus 100 ng/mL human FGF-10 (PeproTech, cat. 100-26), 500 nM SB-431542 (Selleckchem, cat. S1067), and 10 nM gastrin (Tocris Bioscience, cat. 3006). […]
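Throughout, for viability, T/C: spheroids exposed to agents for seven days before readout; 100% = DMSO vehicle control wells.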

**Q.** Which results are given for CC(Nc1ccc2c(c1)OCCn1cc(N3C(=O)OCC3C(F)F)nc1-2)C(N)=O (stereo not given) + CCn1c(-c2cc(N3CCN(C)CC3)cnc2C(C)OC)c2c3cc(ccc31)-c1csc(n1)CC(NC(=O)C1CC1C)C(=O)N1CCCC(N1)C(=O)OCC(C)(C)C2?
**A.** IC50 (curve of first compound, second compound 0.000949 µM): 129 nM; IC50 (curve of first compound, second compound 0.003 µM): < 31.6 nM; IC50 (curve of first compound, second compound 0.00949 µM): < 31.6 nM; IC50 (curve of first compound, second compound 0.03 µM): < 31.6 nM; IC50 (curve of first compound, second compound 0.0949 µM): < 31.6 nM; IC50 (curve of first compound, second compound 0.3 µM): < 31.6 nM; viability, T/C (second compound 0.000949 µM, first compound 0.0316 µM): 64.5%; viability, T/C (second compound 0.000949 µM, first compound 0.1 µM): 49.2%; viability, T/C (second compound 0.000949 µM, first compound 0.316 µM): 39.7%; viability, T/C (second compound 0.000949 µM, first compound 1 µM): 38.6%; viability, T/C (second compound 0.000949 µM, first compound 3.16 µM): 29.7%; viability, T/C (second compound 0.000949 µM, first compound 10 µM): 19.4%; viability, T/C (second compound 0.003 µM, first compound 0.0316 µM): 26.1%; viability, T/C (second compound 0.003 µM, first compound 0.1 µM): 19.6%; viability, T/C (second compound 0.003 µM, first compound 0.316 µM): 15.7%; viability, T/C (second compound 0.003 µM, first compound 1 µM): 11.4%; viability, T/C (second compound 0.003 µM, first compound 3.16 µM): 9.07%; viability, T/C (second compound 0.003 µM, first compound 10 µM): 7.98%; viability, T/C (second compound 0.00949 µM, first compound 0.0316 µM): 2.72%; viability, T/C (second compound 0.00949 µM, first compound 0.1 µM): 1.99%; viability, T/C (second compound 0.00949 µM, first compound 0.316 µM): 1.32%; viability, T/C (second compound 0.00949 µM, first compound 1 µM): 1.55%; viability, T/C (second compound 0.00949 µM, first compound 3.16 µM): 0.87%; viability, T/C (second compound 0.00949 µM, first compound 10 µM): 0.68%; viability, T/C (second compound 0.03 µM, first compound 0.0316 µM): 2.18%; viability, T/C (second compound 0.03 µM, first compound 0.1 µM): 1.47%; viability, T/C (second compound 0.03 µM, first compound 0.316 µM): 0.93%; viability, T/C (second compound 0.03 µM, first compound 1 µM): 0.68%; viability, T/C (second compound 0.03 µM, first compound 3.16 µM): 0.45%; viability, T/C (second compound 0.03 µM, first compound 10 µM): 0.32%; viability, T/C (second compound 0.0949 µM, first compound 0.0316 µM): 1.46%; viability, T/C (second compound 0.0949 µM, first compound 0.1 µM): 1.18%; viability, T/C (second compound 0.0949 µM, first compound 0.316 µM): 0.72%; viability, T/C (second compound 0.0949 µM, first compound 1 µM): 0.45%; viability, T/C (second compound 0.0949 µM, first compound 3.16 µM): 0.31%; viability, T/C (second compound 0.0949 µM, first compound 10 µM): 0.62%; viability, T/C (second compound 0.3 µM, first compound 0.0316 µM): 1.36%; viability, T/C (second compound 0.3 µM, first compound 0.1 µM): 0.73%; viability, T/C (second compound 0.3 µM, first compound 0.316 µM): 0.51%; viability, T/C (second compound 0.3 µM, first compound 1 µM): 0.35%; viability, T/C (second compound 0.3 µM, first compound 3.16 µM): 0.22%; viability, T/C (second compound 0.3 µM, first compound 10 µM): 0.52%

**Q.** Which results are given for Cc1nc(N2CCC3(CC2)COC(C)C3N)c(CO)nc1Sc1ccnc(N)c1Cl (stereo not given)?
**A.** viability, T/C (compound 0.0316 µM): 104% [middle of 4 runs]; viability, T/C (compound 0.1 µM): 103% [middle of 4 runs]; viability, T/C (compound 0.316 µM): 111% [middle of 4 runs]; viability, T/C (compound 1 µM): 112% [middle of 4 runs]; viability, T/C (compound 3.16 µM): 112% [middle of 4 runs]; viability, T/C (compound 10 µM): 108% [middle of 4 runs]; IC50 (curve of compound): > 10000 nM

**Q.** For CC1(O)CCCC1n1c(=O)c(C(F)F)cc2cnc(NC3CCN(S(C)(=O)=O)CC3)nc21 (stereo not given), which viability, T/C (compound 0.0316 µM) is on record?
**A.** 100% [middle of 4 runs]

**Q.** What about the viability, T/C (compound 0.1 µM) of the same compound?
**A.** 83.3% [middle of 4 runs]

**Q.** What about the viability, T/C (compound 0.316 µM) of the same compound?
**A.** 69.4% [middle of 4 runs]

**Q.** And the viability, T/C (compound 1 µM)?
**A.** 65.9% [middle of 4 runs]

**Q.** And the viability, T/C (compound 3.16 µM)?
**A.** 58.3% [middle of 4 runs]

**Q.** What about the viability, T/C (compound 10 µM) of the same compound?
**A.** 21.9% [middle of 4 runs]
